Drawing on ChEMBL document CHEMBL1143031, “First synthesis of 7alpha- and 7beta-amino-DHEA, dehydroepiandrosterone (DHEA) analogues and preliminary evaluation of their cytotoxicity on Leydig cells and TM4 Sertoli cells” (2007), this text covers viability for two compounds.

What all share (type): functional
The nature of experiment [1]: Effect on cell necrosis in Sprague-Dawley rat Leydig cells assessed as cell viability at 35 uM after 24 hrs by trypan blue test. The settings on record: read-out: Activity.
Experiment [2] in a line: Effect on apoptosis in BALB/c mouse sertoli TM4 cells assessed as cell viability at 70 uM after 24 hrs by DAPI test. The settings on record: TM4, 24 h, read-out: Activity.
Experiment [3] can be described thus: Effect on apoptosis in Sprague-Dawley rat Leydig cells assessed as cell viability at 70 uM after 24 hrs by DAPI test. Particulars: read-out: Activity.
Experiment [4] is described as follows: Effect on cell necrosis in Sprague-Dawley rat Leydig cells assessed as cell viability at 70 uM after 24 hrs by trypan blue test. Particulars: read-out: Activity.
Experiment [5] is described as follows: Effect on apoptosis in Sprague-Dawley rat Leydig cells assessed as cell viability at 35 uM after 24 hrs by DAPI test. Particulars: read-out: Activity.
Experiment [6] in a line: Effect on necrosis in BALB/c mouse sertoli TM4 cells assessed as cell viability at 35 uM after 24 hrs by Trypan blue test. The settings on record: TM4, 24 h, read-out: Activity.
A short description of experiment [7]: Effect on apoptosis in BALB/c mouse sertoli TM4 cells assessed as cell viability at 35 uM after 24 hrs by DAPI test. The settings on record: TM4, 24 h, read-out: Activity.
Experiment [8] can be described thus: Effect on necrosis in BALB/c mouse sertoli TM4 cells assessed as cell viability at 70 uM after 24 hrs by Trypan blue test. Particulars: TM4, 24 h, read-out: Activity.

With `C[C@]12CC[C@H](O)CC1=C[C@H](N)[C@@H]1[C@@H]2CC[C@]2(C)C(=O)CC[C@@H]12`, the viability at 35 µM in experiment [1] worked out at 93%; in experiment [5], 92%; in experiment [6], 64%; in experiment [7], 82%. In addition, the viability at 70 µM in experiment [2] stood at 79%; in experiment [3], 89%; in experiment [4], 85%; in experiment [8], 0%.

On to `C[C@]12CC[C@H](O)CC1=CC[C@@H]1[C@@H]2CC[C@]2(C)C(=O)CC[C@@H]12` [PRASTERONE], for which the viability at 35 µM worked out at 86% in experiment [1], 95% in experiment [5], 92% in experiment [6] and 90% in experiment [7]. For the same compound, the viability at 70 µM is 90% in experiment [2], 95% in experiment [3], 76% in experiment [4] and 92% in experiment [8].
